Assay results from patent US8765746B2 (Millennium Pharmaceuticals, Inc., priority 2010, dated 2014).

How the values were obtained:
Format in all cases: biochemical
[1] = target: T1, PI3Kbeta (Homo sapiens, UniProt P42338); experiment: Human PI3K beta enzyme assay (HTRF, as for PI3K alpha); settings: at 1.11 μM; for inhibition at 1.11 µM: read-out: PI3Kbeta % inh
T1 construct: His (N); host or cells: SF9 insect cells (baculovirus)
From the text: (§1) The catalytic subunits of PI3Ks are cloned into either pDEST8(p110 alpha) or pDEST10(p110beta, p110delta, and p110gamma) as N-terminal His tagged fusion proteins using the Gateway system (Invitrogen, catalog#11804-010 for pDEST8 and 11806-015 for pDEST10). The sequences are verified before recombinant protein expression using the Baculovirus Expression System with Gateway® Technology. The accession numbers for the subunits are as follows:
(§2) The regulatory subunits of PI3Ks are cloned into pDEST8 as un-tagged protein using the Gateway system (Catalog#11804-010). The sequences are verified before recombinant protein expression using the Baculovirus Expression System with Gateway® Technology. The accession numbers for the subunits are as follows:
(§3) For expression of the p110 complexes, the p85 (MOI of 4) is co-infected with p110 alpha, beta, and delta respectively (1MOI) in SF9 cells and harvested at 60 hours post co-infection. P110 gamma was infected at 1 MOI and harvested at 60 hours post infection.
(§4) For purification, PI3Ks are purified by Ni-NTA Agarose (Qiagen #30250) followed by Mono Q 10/100 GL (Ge Healthcare #17-5167-01). VPS34 is purified by Glutathione Sepharose 4 Fast Flow (GE Healthcare #17-5132-03) followed by HiTrap Q (GE Healthcare #17-1153-01).
(§5) 0.5 uL compounds in DMSO are added to wells of a 384 well microtitre plate (Corning 3575). At room temperature: 10 ul PI3K reaction buffer (50 mM Hepes, 5 mM DTT, 150 mM NaCl, 10 mM beta-glycerophosphate, 10 mM MgCl2, 0.25 mM sodium cholate and 0.001% CHAPS, pH 7.00) containing ATP (25 uM, Promega) is added followed immediately by 10 ul PI3K reaction buffer containing di-C8 PI(4,5)P2 (3.5 uM, CellSignals) and PI3Kalpha (0.4875 nM, Millennium Protein Sciences Group) and the mixture is incubated with shaking at room temperature for 30 minutes. Then 5 ul PI3K stop mix (50 mM Hepes, 5 mM DTT, 150 mM NaCl, 0.01% Tween-20, 15 mM EDTA and 25 nM biotin-PI(3,4,5)P3 (Echelon) is added to quench the reaction followed immediately by addition of 5 ul HTRF detection mix (50 mM Hepes, 5 mM DTT, 150 mM NaCl, 0.01% Tween-20, 40 mM KF, 10 nM GST:GRP-1 PH domain (Millennium Protein Sciences Group), 15 nM Streptavidin-XL (CisBio) and 0.375 nM anti-GST Eu++ antibody (CisBio) at pH 7.00). The plates are then incubated for 1 hour at room temperature with shaking and then read on a BMG PheraStar Plus reader.
(§6) 2) Human PI3K beta, delta and gamma isoforms are tested using the procedure described for PI3K alpha above but with the following changes: PI3K beta (5.25 nM), PI3K delta (0.75 nM) and PI3K gamma (5 nM). All isoforms supplied by Millennium Protein Science Group.

[2] = target: T2, PI3Kalpha (Homo sapiens, UniProt P42336); experiment: Human PI3Kα enzyme assay (HTRF); settings: for inhibition at 1.11 µM: read-out: PI3Kalpha % inh; for PI3Kalpha % inh: at 1.11 μM
T2 construct: His (N); host or cells: SF9 insect cells (baculovirus)
From the text: as §1, §2, §3, §4
1) Human PI3Kα enzyme assay method
as §5

[3] = target: T3, PI3Kdelta (Homo sapiens, UniProt O00329); experiment: Human PI3K delta enzyme assay (HTRF, as for PI3K alpha); settings: for inhibition at 1.11 µM: read-out: PI3Kdelta % inh
T3 construct: His (N); host or cells: SF9 insect cells (baculovirus)
From the text: as §1, §2, §3, §4, §5, §6

[4] = target: T4, PI3Kgamma (Homo sapiens, UniProt P48736); experiment: Human PI3K gamma enzyme assay (HTRF, as for PI3K alpha); settings: for inhibition at 1.11 µM: read-out: PI3Kgamma % inh
T4 construct: His (N); host or cells: SF9 insect cells (baculovirus)
From the text: as §1, §2, §3, §4, §5, §6

T2 sequence (P42336 whole entry): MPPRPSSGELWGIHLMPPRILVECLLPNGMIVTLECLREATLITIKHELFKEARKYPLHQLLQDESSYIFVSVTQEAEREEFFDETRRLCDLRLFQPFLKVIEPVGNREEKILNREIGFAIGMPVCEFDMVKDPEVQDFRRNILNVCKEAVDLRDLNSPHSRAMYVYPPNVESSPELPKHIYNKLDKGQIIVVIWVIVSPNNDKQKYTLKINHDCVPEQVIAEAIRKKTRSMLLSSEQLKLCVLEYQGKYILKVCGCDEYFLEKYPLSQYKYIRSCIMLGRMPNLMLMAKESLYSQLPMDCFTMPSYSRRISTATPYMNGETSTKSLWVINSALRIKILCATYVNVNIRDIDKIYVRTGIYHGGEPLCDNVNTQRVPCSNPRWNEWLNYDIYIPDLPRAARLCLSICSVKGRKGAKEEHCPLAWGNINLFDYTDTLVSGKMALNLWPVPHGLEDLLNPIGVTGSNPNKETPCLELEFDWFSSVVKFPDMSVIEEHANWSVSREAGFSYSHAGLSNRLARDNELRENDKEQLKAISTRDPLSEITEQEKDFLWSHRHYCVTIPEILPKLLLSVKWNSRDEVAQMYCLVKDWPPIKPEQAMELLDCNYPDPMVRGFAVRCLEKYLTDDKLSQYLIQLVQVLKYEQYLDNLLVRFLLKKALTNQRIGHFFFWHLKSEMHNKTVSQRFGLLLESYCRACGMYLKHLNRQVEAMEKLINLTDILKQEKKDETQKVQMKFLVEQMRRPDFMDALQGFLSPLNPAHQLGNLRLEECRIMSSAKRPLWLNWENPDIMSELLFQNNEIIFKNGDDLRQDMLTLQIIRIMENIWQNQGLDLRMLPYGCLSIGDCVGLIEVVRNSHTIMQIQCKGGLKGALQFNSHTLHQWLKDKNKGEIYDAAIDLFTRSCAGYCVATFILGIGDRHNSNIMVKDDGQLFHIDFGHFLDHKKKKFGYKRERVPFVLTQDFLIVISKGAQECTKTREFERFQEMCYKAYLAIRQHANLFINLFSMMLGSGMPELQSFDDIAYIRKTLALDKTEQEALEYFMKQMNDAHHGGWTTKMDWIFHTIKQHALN
T2 sequence (P27986 whole entry partner): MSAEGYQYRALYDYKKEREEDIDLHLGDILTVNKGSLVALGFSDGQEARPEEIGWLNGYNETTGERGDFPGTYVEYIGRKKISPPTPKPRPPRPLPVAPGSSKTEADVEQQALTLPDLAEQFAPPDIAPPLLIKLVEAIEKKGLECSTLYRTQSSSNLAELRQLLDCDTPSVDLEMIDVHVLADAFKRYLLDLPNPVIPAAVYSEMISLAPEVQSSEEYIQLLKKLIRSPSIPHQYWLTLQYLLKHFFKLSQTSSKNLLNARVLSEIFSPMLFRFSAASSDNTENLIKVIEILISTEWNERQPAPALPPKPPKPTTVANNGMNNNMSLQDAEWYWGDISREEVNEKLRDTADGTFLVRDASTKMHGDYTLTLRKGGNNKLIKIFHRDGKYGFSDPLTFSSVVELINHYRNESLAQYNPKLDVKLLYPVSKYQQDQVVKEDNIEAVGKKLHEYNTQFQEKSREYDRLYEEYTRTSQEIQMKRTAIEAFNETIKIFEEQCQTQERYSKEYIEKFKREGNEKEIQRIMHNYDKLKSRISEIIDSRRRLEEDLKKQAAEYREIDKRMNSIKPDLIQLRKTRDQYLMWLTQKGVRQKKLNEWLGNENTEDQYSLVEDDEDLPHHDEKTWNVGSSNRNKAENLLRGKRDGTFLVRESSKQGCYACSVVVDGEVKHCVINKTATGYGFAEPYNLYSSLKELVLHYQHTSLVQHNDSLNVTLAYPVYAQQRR
T1 sequence (P42338 whole entry): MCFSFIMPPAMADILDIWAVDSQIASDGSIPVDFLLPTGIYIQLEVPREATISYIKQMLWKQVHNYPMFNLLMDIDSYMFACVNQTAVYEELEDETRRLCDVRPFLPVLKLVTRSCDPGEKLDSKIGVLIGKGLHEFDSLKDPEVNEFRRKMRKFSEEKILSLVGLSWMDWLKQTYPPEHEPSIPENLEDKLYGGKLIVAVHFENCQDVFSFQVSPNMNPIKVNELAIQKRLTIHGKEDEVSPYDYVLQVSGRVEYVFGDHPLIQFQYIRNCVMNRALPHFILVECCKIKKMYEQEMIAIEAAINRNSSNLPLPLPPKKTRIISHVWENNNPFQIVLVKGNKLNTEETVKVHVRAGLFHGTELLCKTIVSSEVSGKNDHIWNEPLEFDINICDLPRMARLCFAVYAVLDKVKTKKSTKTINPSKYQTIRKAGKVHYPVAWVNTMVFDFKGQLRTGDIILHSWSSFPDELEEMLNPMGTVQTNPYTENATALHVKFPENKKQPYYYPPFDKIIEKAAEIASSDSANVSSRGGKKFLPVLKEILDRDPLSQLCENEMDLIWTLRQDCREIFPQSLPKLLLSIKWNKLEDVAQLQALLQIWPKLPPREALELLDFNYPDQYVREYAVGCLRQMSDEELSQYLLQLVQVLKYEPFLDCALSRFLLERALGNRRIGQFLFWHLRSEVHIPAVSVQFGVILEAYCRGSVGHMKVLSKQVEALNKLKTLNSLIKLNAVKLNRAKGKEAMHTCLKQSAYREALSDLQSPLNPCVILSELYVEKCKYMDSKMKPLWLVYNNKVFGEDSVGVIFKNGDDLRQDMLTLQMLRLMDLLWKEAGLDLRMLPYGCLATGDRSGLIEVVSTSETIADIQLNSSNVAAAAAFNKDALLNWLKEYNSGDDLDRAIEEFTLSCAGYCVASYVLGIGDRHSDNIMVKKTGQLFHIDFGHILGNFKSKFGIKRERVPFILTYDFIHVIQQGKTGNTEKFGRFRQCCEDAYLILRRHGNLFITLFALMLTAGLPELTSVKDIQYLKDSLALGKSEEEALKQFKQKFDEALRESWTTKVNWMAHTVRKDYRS
T1 sequence (P27986 whole entry partner): as the sequence (P27986 whole entry partner) above
T4 sequence (P48736 whole entry): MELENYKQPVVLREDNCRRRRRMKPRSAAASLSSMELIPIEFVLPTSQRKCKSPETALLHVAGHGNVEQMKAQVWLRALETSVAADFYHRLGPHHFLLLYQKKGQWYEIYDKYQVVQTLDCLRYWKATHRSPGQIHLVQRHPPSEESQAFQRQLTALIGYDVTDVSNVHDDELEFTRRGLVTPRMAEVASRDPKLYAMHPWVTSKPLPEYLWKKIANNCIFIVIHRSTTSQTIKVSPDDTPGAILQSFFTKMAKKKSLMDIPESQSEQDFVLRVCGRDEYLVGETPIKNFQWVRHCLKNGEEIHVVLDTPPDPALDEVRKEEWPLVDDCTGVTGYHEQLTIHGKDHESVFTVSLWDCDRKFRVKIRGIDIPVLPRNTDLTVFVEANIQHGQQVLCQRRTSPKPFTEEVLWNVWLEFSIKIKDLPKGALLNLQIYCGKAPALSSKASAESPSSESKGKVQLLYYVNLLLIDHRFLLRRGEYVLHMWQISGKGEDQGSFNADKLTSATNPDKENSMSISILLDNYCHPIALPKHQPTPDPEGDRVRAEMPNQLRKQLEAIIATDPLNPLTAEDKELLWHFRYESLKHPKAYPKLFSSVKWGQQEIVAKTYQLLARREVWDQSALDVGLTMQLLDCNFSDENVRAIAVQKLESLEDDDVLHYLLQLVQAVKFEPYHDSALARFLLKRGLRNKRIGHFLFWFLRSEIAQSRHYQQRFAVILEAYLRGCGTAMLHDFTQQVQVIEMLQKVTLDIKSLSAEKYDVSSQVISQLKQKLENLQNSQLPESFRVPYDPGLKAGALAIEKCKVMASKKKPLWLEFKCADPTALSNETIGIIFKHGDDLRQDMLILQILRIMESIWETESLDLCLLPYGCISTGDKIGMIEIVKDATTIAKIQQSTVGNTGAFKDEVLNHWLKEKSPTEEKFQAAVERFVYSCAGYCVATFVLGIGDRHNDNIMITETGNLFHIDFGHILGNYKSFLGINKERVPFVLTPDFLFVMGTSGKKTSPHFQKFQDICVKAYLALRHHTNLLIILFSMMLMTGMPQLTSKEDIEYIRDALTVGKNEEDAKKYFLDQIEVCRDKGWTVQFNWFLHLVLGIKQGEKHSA
T3 sequence (O00329 whole entry): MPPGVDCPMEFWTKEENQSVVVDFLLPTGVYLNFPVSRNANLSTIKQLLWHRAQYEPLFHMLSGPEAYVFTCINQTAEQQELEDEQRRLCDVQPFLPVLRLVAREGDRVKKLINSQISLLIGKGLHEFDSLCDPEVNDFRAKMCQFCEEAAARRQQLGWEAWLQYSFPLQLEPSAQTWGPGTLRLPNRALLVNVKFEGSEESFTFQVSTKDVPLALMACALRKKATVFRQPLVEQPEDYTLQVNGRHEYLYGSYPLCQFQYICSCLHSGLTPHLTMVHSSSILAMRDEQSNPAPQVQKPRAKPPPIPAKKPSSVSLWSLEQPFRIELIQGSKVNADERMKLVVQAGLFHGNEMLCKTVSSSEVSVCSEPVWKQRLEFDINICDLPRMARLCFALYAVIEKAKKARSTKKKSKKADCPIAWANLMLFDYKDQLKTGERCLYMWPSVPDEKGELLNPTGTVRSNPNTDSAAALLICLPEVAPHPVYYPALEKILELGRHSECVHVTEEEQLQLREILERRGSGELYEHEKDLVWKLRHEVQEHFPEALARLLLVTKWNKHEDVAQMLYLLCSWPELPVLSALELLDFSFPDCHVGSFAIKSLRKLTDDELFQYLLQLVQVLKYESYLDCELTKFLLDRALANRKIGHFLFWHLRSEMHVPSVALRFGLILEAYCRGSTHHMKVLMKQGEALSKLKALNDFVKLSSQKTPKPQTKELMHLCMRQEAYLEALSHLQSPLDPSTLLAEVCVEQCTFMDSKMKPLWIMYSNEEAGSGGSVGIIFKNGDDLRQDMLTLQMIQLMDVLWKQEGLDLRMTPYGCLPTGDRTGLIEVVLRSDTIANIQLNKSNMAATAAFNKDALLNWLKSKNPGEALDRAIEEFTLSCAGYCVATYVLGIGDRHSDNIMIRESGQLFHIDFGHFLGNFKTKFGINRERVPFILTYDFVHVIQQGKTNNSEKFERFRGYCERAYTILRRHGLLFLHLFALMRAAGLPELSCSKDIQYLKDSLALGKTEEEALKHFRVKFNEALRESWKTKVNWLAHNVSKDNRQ
T3 sequence (P27986 whole entry partner): as the sequence (P27986 whole entry partner) above

SMILES	inhibition at 1.11 µM [1]	inhibition at 1.11 µM [2]	PI3Kbeta % inh [1]	PI3Kalpha % inh [2]	other results
NC(=O)[C@@H]1NC(=O)c2sc(N3CCOCC3)cc2[C@H]1c1ccc(Cl)c(Cl)c1 (relative stereo) [Compound 146, rel-(4R,5R)-4-(3,4-dichlorophenyl)-2-(morpholin-4-yl)-7-oxo-4,5,6,7-tetrahydrothieno[2,3-c]pyridine-5-carboxamide]	107%	40.4%			inhibition at 1.11 µM [3]: 99.7%; inhibition at 1.11 µM [4]: 50.7%
O=C1N[C@@H](CO)[C@H](c2ccc(Cl)c(Cl)c2)c2cc(N3CCOCC3)sc21 (relative stereo) [Compound 192, rel-(4R,5R)-4-(3,4-dichlorophenyl)-5-(hydroxymethyl)-2-(morpholin-4-yl)-5,6-dihydrothieno[2,3-c]pyridin-7(4H)-one]	106%	39.6%			inhibition at 1.11 µM [3]: 105%; inhibition at 1.11 µM [4]: 52.9%
CNC(=O)[C@@H]1NC(=O)c2sc(N3CCOCC3)cc2[C@H]1c1ccc(Cl)cc1 [Compound 123]			101.46%	32.28%	inhibition at 1.11 µM [3]: 49.6%; inhibition at 1.11 µM [4]: 10.4%
O=C1N[C@@H](CO)[C@H](c2ccc(Cl)cc2)c2cc(N3CCOCC3)sc21 [Compound 133]	110%	35%			inhibition at 1.11 µM [3]: 102%; inhibition at 1.11 µM [4]: 30.7%
CCCOC(=O)[C@@H]1NC(=O)c2sc(N3CCOCC3)cc2[C@H]1c1ccc(Cl)cc1 [Compound 136]			87.47%	17.00%	PI3Kdelta % inh ([3]; at 1.11 μM): 35.35%; PI3Kgamma % inh ([4]; at 1.11 μM): 4.11%
O=C1NCCC(c2ccc(Cl)cc2)c2cc(N3CCOCC3)sc21 (centres unmarked) [Compound 148]			118.63%	24.59%	inhibition at 1.11 µM [3]: 98.2%; inhibition at 1.11 µM [4]: 13.2%
N#Cc1c(N2CCOCC2)sc2c1C(c1ccc(Cl)cc1)CCNC2=O (centres unmarked) [Compound 150]	108%	26.8%			inhibition at 1.11 µM [3]: 99.9%; inhibition at 1.11 µM [4]: 21.5%
N#Cc1c(N2CCOCC2)sc2c1C(c1c(F)cc(Cl)cc1F)CNC2=O (centres unmarked) [Compound 151]	103%	43.1%			inhibition at 1.11 µM [3]: 90%; inhibition at 1.11 µM [4]: 41%
COC(=O)c1cc(C2CCNC(=O)c3sc(N4CCOCC4)nc32)ccc1Cl (centres unmarked) [Compound 174, methyl 2-chloro-5-[2-(morpholin-4-yl)-4-oxo-5,6,7,8-tetrahydro-4H-[1,3]thiazolo[5,4-c]azepin-8-yl]benzoate]	82.5%	4.56%			
COCCNC(=O)[C@@H]1NC(=O)c2sc(N3CCOCC3)cc2[C@H]1c1ccc(Cl)cc1 [Compound 177]	58.5%	29.6%			
COC(=O)c1[nH]c(=O)c2sc(N3CCOCC3)cc2c1-c1ccc(Cl)c(Cl)c1 [Compound 184, methyl 4-(3,4-dichlorophenyl)-2-(morpholin-4-yl)-7-oxo-6,7-dihydrothieno[2,3-c]pyridine-5-carboxylate]	77.5%	6.62%			
N#Cc1c(N2CCOCC2)sc2c1C(c1ccc(Cl)c(Cl)c1)NC2=O (centres unmarked) [Compound 187]	104%	38.4%			
C=CCC1(C(=O)O)NC(=O)c2sc(N3CCOCC3)cc2C1c1ccc(Cl)c(Cl)c1 (centres unmarked) [Compound 196, 5-allyl-4-(3,4-dichlorophenyl)-2-(morpholin-4-yl)-7-oxo-4,5,6,7-tetrahydrothieno[2,3-c]pyridine-5-carboxylic acid]	84.3%	13.7%			
N#Cc1c(N2CCOCC2)sc2c1C(c1ccc(Cl)c(Cl)c1)CCNC2=O (centres unmarked) [Compound 199]			115.55%	65.98%	
O=C1N[C@@H](C(=O)NCCCO)[C@H](c2ccc(Cl)cc2)c2cc(N3CCOCC3)sc21 [Compound 200]			53.94%	48.20%	
O=C1NCCC(c2ccc(Cl)cc2)c2cc(N3CCOCC3)sc21 (centres unmarked) [Compound 201, 4-(4-chlorophenyl)-2-(morpholin-4-yl)-4,5,6,7-tetrahydro-8H-thieno[2,3-c]azepin-8-one]		16.7%	79.38%		
CCNC(=O)[C@@H]1NC(=O)c2sc(N3CCOCC3)cc2[C@H]1c1ccc(Cl)cc1 [Compound 203]			66.37%	40.46%	
O=C1N[C@@H](C(=O)NCCO)[C@H](c2ccc(Cl)cc2)c2cc(N3CCOCC3)sc21 [Compound 204]			60.14%	51.34%	
CNC(=O)[C@@H]1NC(=O)c2sc(C3=CCOCC3)cc2[C@H]1c1ccc(Cl)cc1 [Compound 207]		42.9%	62.94%		
CNC(=O)[C@@H]1NC(=O)c2sc(N3CCOCC3)cc2[C@H]1c1ccc(Cl)cc1 [Compound 212]			65.59%	54.25%	
O=C(O)CN1CC(c2ccc(Cl)cc2)c2cc(N3CCOCC3)sc2C1=O (centres unmarked) [Compound 213, 2-(4-(4-chlorophenyl)-2-morpholino-7-oxo-4,5-dihydrothieno[2,3-c]pyridin-6(7H)-yl)acetic acid]	99.3%	5.63%			
NC(=O)CN1CC(c2ccc(Cl)cc2)c2cc(N3CCOCC3)sc2C1=O (centres unmarked) [Compound 214, 2-(4-(4-chlorophenyl)-2-morpholino-7-oxo-4,5-dihydrothieno[2,3-c]pyridin-6(7H)-yl)acetamide]	110%	5.13%			

The next lines start with results.

inhibition at 1.11 µM [1]	inhibition at 1.11 µM [2]	PI3Kbeta % inh [1]	PI3Kalpha % inh [2]	SMILES	other results
107%	42.4%			O=C1CC(c2ccc3ccccc3c2)c2cc(N3CCOCC3)sc21 (centres unmarked) [Compound 119]	inhibition at 1.11 µM [3]: 99.8%; inhibition at 1.11 µM [4]: 60.3%
93.5%	12.2%			O=C1NCC(c2ccc(Cl)cc2)c2nc(N3CCOCC3)sc21 (centres unmarked) [Compound 124]	inhibition at 1.11 µM [3]: 59.2%; inhibition at 1.11 µM [4]: 9.41%
107%	21.6%			Cc1cc(-c2nc3c(s2)C(=O)NCC3c2ccc3ccccc3c2)ccn1 (centres unmarked) [Compound 179]	
116%	25.9%			O=C1NCC(c2ccc3ccncc3c2)c2nc(N3CCOCC3)sc21 (centres unmarked) [Compound 189]	
113%	38.6%			Cc1cc(C2CNC(=O)c3sc(N4CCOCC4)cc32)ccc1Cl (centres unmarked) [Compound 194]	
62.5%	16.5%			O=C1NCC=C(c2ccc3ccncc3c2)c2nc(N3CCOCC3)sc21 [Compound 195]	
		113.55%	88.75%	O=C1N[C@@H](CO)CC(c2ccc3ccccc3c2)c2nc(N3CCOCC3)sc21 (some centres unmarked) [Compound 202]	
		96.83%	28.04%	Cc1cc(C2CNC(=O)c3sc(N4CCOCC4)cc32)ccc1Cl (centres unmarked) [Compound 205]	
58.5%	41.8%			CNC(=O)[C@@H]1NC(=O)c2sc(-c3ccncc3)cc2[C@H]1c1ccc(Cl)cc1 [Compound 206]	
96.8%	18.4%			O=C1NCC(c2ccc(Cl)c(Cl)c2)c2cc(N3CCOCC3)sc21 (centres unmarked) [Compound 208]	
	20.5%	62.33%		O=C1NCC(c2ccc(Cl)cc2)c2cc(N3CCOCC3)sc21 (centres unmarked) [Compound 211]	
